Values quoted from earlier work as cited in patent publication US20090208616A1, “INTERVENTION TECHNIQUES FOR REDUCING CARCASS CONTAMINATION” (priority 2000, published 2009).
Read-outs that look alike come from different tables or passages of the source.

Test system: Giardia Cysts

**Q.** What does the source list for `NCl` [Chloramine]?
**A.** CT value for 0.5-log inactivation of Giardia cysts by chloramine (pH range 6 to 9, 5 ° C.): 365 mg/L-min; CT value for 1-log inactivation of Giardia cysts by chloramine (pH range 6 to 9, 5 ° C.): 735 mg/L-min; CT value for 1.5-log inactivation of Giardia cysts by chloramine (pH range 6 to 9, 5 ° C.): 1100 mg/L-min; CT value for 2-log inactivation of Giardia cysts by chloramine (pH range 6 to 9, 5 ° C.): 1470 mg/L-min; CT value for 2.5-log inactivation of Giardia cysts by chloramine (pH range 6 to 9, 5 ° C.): 1830 mg/L-min; CT value for 3-log inactivation of Giardia cysts by chloramine (pH range 6 to 9, 5 ° C.): 2200 mg/L-min; CT value for 0.5-log inactivation of Giardia cysts by chloramine (pH range 6 to 9, 10 ° C.): 310 mg/L-min; CT value for 1-log inactivation of Giardia cysts by chloramine (pH range 6 to 9, 10 ° C.): 615 mg/L-min; CT value for 1.5-log inactivation of Giardia cysts by chloramine (pH range 6 to 9, 10 ° C.): 930 mg/L-min; CT value for 2-log inactivation of Giardia cysts by chloramine (pH range 6 to 9, 10 ° C.): 1230 mg/L-min; CT value for 2.5-log inactivation of Giardia cysts by chloramine (pH range 6 to 9, 10 ° C.): 1540 mg/L-min; CT value for 3-log inactivation of Giardia cysts by chloramine (pH range 6 to 9, 10 ° C.): 1850 mg/L-min; CT value for 0.5-log inactivation of Giardia cysts by chloramine (pH range 6 to 9, 15 ° C.): 250 mg/L-min; CT value for 1-log inactivation of Giardia cysts by chloramine (pH range 6 to 9, 15 ° C.): 500 mg/L-min; CT value for 1.5-log inactivation of Giardia cysts by chloramine (pH range 6 to 9, 15 ° C.): 750 mg/L-min; CT value for 2-log inactivation of Giardia cysts by chloramine (pH range 6 to 9, 15 ° C.): 1000 mg/L-min; CT value for 2.5-log inactivation of Giardia cysts by chloramine (pH range 6 to 9, 15 ° C.): 1250 mg/L-min; CT value for 3-log inactivation of Giardia cysts by chloramine (pH range 6 to 9, 15 ° C.): 1500 mg/L-min; CT value for 0.5-log inactivation of Giardia cysts by chloramine (pH range 6 to 9, 20 ° C.): 185 mg/L-min; CT value for 1-log inactivation of Giardia cysts by chloramine (pH range 6 to 9, 20 ° C.): 370 mg/L-min; CT value for 1.5-log inactivation of Giardia cysts by chloramine (pH range 6 to 9, 20 ° C.): 550 mg/L-min; CT value for 2-log inactivation of Giardia cysts by chloramine (pH range 6 to 9, 20 ° C.): 735 mg/L-min; CT value for 2.5-log inactivation of Giardia cysts by chloramine (pH range 6 to 9, 20 ° C.): 915 mg/L-min; CT value for 3-log inactivation of Giardia cysts by chloramine (pH range 6 to 9, 20 ° C.): 1100 mg/L-min; CT value for 0.5-log inactivation of Giardia cysts by chloramine (pH range 6 to 9, 25 ° C.): 125 mg/L-min; CT value for 1-log inactivation of Giardia cysts by chloramine (pH range 6 to 9, 25 ° C.): 250 mg/L-min; CT value for 1.5-log inactivation of Giardia cysts by chloramine (pH range 6 to 9, 25 ° C.): 375 mg/L-min; CT value for 2-log inactivation of Giardia cysts by chloramine (pH range 6 to 9, 25 ° C.): 500 mg/L-min; CT value for 2.5-log inactivation of Giardia cysts by chloramine (pH range 6 to 9, 25 ° C.): 625 mg/L-min; CT value for 3-log inactivation of Giardia cysts by chloramine (pH range 6 to 9, 25 ° C.): 750 mg/L-min; CT value for 0.5-log inactivation of Giardia cysts by chloramine (pH range 6 to 9, ≦1 ° C.): 635 mg/L-min; CT value for 1-log inactivation of Giardia cysts by chloramine (pH range 6 to 9, ≦1 ° C.): 1270 mg/L-min; CT value for 1.5-log inactivation of Giardia cysts by chloramine (pH range 6 to 9, ≦1 ° C.): 1900 mg/L-min; CT value for 2-log inactivation of Giardia cysts by chloramine (pH range 6 to 9, ≦1 ° C.): 2535 mg/L-min; CT value for 2.5-log inactivation of Giardia cysts by chloramine (pH range 6 to 9, ≦1 ° C.): 3170 mg/L-min; CT value for 3-log inactivation of Giardia cysts by chloramine (pH range 6 to 9, ≦1 ° C.): 3800 mg/L-min
